From ChEMBL document CHEMBL4342426, “Structure-activity relationship of 4-azaindole-2-piperidine derivatives as agents against Trypanosoma cruzi” (Bioorg Med Chem Lett, 2020)

Legend:
[1] = in vitro; conditions: human, liver microsomes
Description: Metabolic stability in human liver microsomes assessed as intrinsic clearance at 0.5 uM incubated for 30 mins by LC-MS/MS analysis

[2] = system: Leishmania infantum; test: microbe, parasite or virus in culture; conditions: for IC50: MHOM/MA(BE)/67/ITMAP263, 120 h; for IC90: MHOM/MA(BE)/67/ITMAP263, in Mus musculus, 120 h
Description: Antileishmanial activity against amastigote stage of Leishmania infantum MHOM/MA(BE)/67/ITMAP263 infected in mouse peritoneal macrophage assessed as parasite growth inhibition incubated for 5 days by Giemsa staining based assay

[3] = in vitro; conditions: mouse, liver microsomes
Description: Metabolic stability in mouse liver microsomes assessed as intrinsic clearance at 0.5 uM incubated for 30 mins by LC-MS/MS analysis

[4] = system: Trypanosoma cruzi; test: microbe, parasite or virus in culture; conditions: Tulahuen CL2, MRC-5 SV2, 168 h
Description: Antitrypanosomal activity against Trypanosoma cruzi Tulahuen CL2 amastigotes infected in human MRC5 SV2 cells incubated for 7 days by chlorophenol red beta-D-galactopyranoside substrate based spectrophotometric assay

[5] = system: Trypanosoma brucei rhodesiense; test: microbe, parasite or virus in culture; conditions: STIB900, 72 h
Description: Antiprotozoal activity against Trypanosoma brucei rhodesiense STIB900 trypomastigotes incubated for 72 hrs by resazurin dye based fluorimetric analysis

[6] = system: Macrophage; test: cells; conditions: Mus musculus, 72 h
Description: (§1) Cytotoxicity against mouse peritoneal Macrophage cells assessed as reduction in cell viability incubated for 3 days by fluorimetry

[7] = cells; conditions: Homo sapiens, MRC-5 SV2, 72 h
Description: (§2) Cytotoxicity against human MRC5 SV2 cells assessed as reduction in cell viability incubated for 3 days by fluorimetry

[8] = in vitro; conditions: mouse, peritoneal macrophages
Description: as §1

[9] = system: Trypanosoma brucei; test: microbe, parasite or virus in culture; conditions: Squib 427, 72 h
Description: Antitrypanosomal activity against Trypanosoma brucei Squib 427 assessed as reduction in parasite growth incubated for 72 hrs by resazurin dye based fluorimetric analysis

[10] = physchem; conditions: buffer, pH 7.4
Description: Lipophilicity, logD of compound at pH 7.4 by HPLC analysis

[11] = in vitro; conditions: mouse, liver microsomes; remark: listed apart in the source
Description: Metabolic stability in mouse liver microsomes assessed as fraction unbound at 0.5 uM incubated for 30 mins by LC-MS/MS analysis

[12] = in vitro; conditions: PAMPA
Description: Effective permeability of compound by PAMPA assay

[13] = in vitro; conditions: human, MRC5 SV2 cells
Description: as §2

[14] = in vitro; conditions: human, MRC5 SV2 cells; remark: listed apart in the source
Description: Selectivity index, ratio of IC50 for human MRC5 SV2 cells to IC50 for Trypanosoma cruzi Tulahuen CL2 amastigotes infected in human MRC5 SV2 cells

SMILES	CLint scaled at 0.5 h, 0.5 µM [1] [mL/min/kg]	microsomal CLint at 0.5 h, 0.5 µM [1] [µL/min/mg]	IC50 [2] [µM]	IC90 [2] [µM]	CLint scaled at 0.5 h, 0.5 µM [3] [mL/min/kg]	microsomal CLint at 0.5 h, 0.5 µM [3] [µL/min/mg]	IC50 [4] [µM]	IC90 [4] [µM]	IC50 [5] [µM]	IC90 [5] [µM]	IC50 [6] [µM]	IC50 [7] [µM]	IC90 at 72 h [8] [µM]	IC50 [9] [µM]	IC90 [9] [µM]	logD [10]	fraction unbound at 0.5 h, 0.5 µM [11]	Papp [12] [×10⁻⁶ cm/s]	IC90 at 72 h [13] [µM]	selectivity ratio [14]
O=C(CCc1nc2cccnc2n1CCO)Nc1ccccc1	< 35	< 23	64	64	281	62.1	64	64	64	64	64	64	64	64	64	1.85	0.705	3.98	64	–
CCN(CCC(=O)Nc1cccnc1)C(=O)c1ccc(F)cc1	< 43.3	< 23	64	64	140	25.1	64	64	64	64	64	64	64	64	64	2.03	0.571	5.23	64	–
COc1ccc2[nH]c(C3CCCN(C(=O)c4ccc(F)cc4)C3)cc2n1 (centres undefined)	35	26.4	64	64	593	151	64	64	19.6	30.6	64	64	64	64	64	3.39	0.815	14.4	64	–
O=C(c1cccc(C(F)(F)F)n1)N1CCCC(c2cc3ncccc3[nH]2)C1 (centres undefined)	38.3 to 210	23 to 114	64	64	315 to 1070	64 to 196	14.8 to 26.1	59.3 to 60.5	64	64	64	64	64	64	64	2.94 to 3.02	0.584 to 0.649	0.584 to 2.12	64	2.42 to 4.35
Cc1nc(C)c(C(=O)N2CCCC(c3cc4ncccc4[nH]3)C2)s1 (centres undefined)	29.5	26.2	64	64	774	233	64	64	64	64	64	64	64	64	64	2.3	0.96	2.88	64	–
O=C1c2ccccc2CN1CCc1cc2ncccc2[nH]1	119	69.1	64	64	1090	213	64	64	64	64	64	64	64	64	64	2.19	0.626	0.504	64	–
Nc1cc(C2CCCN(C(=O)c3ccccc3)C2)[nH]n1 (centres undefined)	< 36.7	< 23	64	64	< 108	< 23	64	64	64	64	64	64	64	64	64	1.09	0.684	1.42	64	–
Nc1cc(C2CCCN(C(=O)c3cc(C(F)(F)F)no3)C2)[nH]n1 (centres undefined)	< 26.7	< 23	64	64	175	54.3	64	64	64	64	64	64	64	64	64	1.77	0.991	3.76	64	–
O=C(c1ccccc1)N1CCCC(c2cn3cccnc3n2)C1 (centres undefined)	< 31.7	< 23	64	64	338	127	64	64	64	64	64	64	64	64	64	1.71	0.805	2.75	64	–
CC(C)(C)OC(=O)N1CCCC(c2cn3cccnc3n2)C1 (centres undefined)	49	38	64	64	3290	861	64	64	64	64	64	64	64	64	64	2.58	0.836	7.69	64	–
O=C(Cc1ccccc1)N1CCN(c2nc3ccccc3s2)CC1	210	126	64	64	–	–	40	62.9	56	64	64	64	64	64	64	3.65	0.647	15.3	64	1.59
